According to PubChem BioAssay (NCI):
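Briefly, cells in 96-well plates were exposed to five compound concentrations for 48 h, and endpoints were estimated by linear interpolation. GI50 = concentration required for 50% inhibition of growth. TGI: total growth inhibition.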

Legend:
Test in all cases: inhibition of tumour cell growth, NCI panel, 48 h
SR leukemia = tested on: SR leukemia
COLO 205 colon = tested on: COLO 205 colon
HOP-92 NSCLC = tested on: HOP-92 NSCLC
HOP-62 NSCLC = tested on: HOP-62 NSCLC
NCI-H23 lung = tested on: NCI-H23 lung
OVCAR-3 ovarian = tested on: OVCAR-3 ovarian
BT-549 breast = tested on: BT-549 breast
SW-620 colon = tested on: SW-620 colon
U251 CNS = tested on: U251 CNS
NCI-H460 lung = tested on: NCI-H460 lung
HS 578T breast = tested on: HS 578T breast
SNB-19 CNS = tested on: SNB-19 CNS
PC-3 prostate = tested on: PC-3 prostate
SK-MEL-2 melanoma = tested on: SK-MEL-2 melanoma
SF-268 CNS = tested on: SF-268 CNS
M14 melanoma = tested on: M14 melanoma
SK-MEL-5 melanoma = tested on: SK-MEL-5 melanoma
SK-MEL-28 melanoma = tested on: SK-MEL-28 melanoma
MALME-3M melanoma = tested on: MALME-3M melanoma
IGROV1 ovarian = tested on: IGROV1 ovarian
MDA-MB-231 breast = tested on: MDA-MB-231 breast
UACC-257 melanoma = tested on: UACC-257 melanoma
HCT-15 colon = tested on: HCT-15 colon
OVCAR-8 ovarian = tested on: OVCAR-8 ovarian
NCI/ADR-RES ovarian = tested on: NCI/ADR-RES ovarian
UO-31 renal = tested on: UO-31 renal
MOLT-4 leukemia = tested on: MOLT-4 leukemia
CAKI-1 renal = tested on: CAKI-1 renal
UACC-62 melanoma = tested on: UACC-62 melanoma
NCI-H226 lung = tested on: NCI-H226 lung
A549 NSCLC = tested on: A549 NSCLC
786-0 renal = tested on: 786-0 renal
NCI-H522 lung = tested on: NCI-H522 lung
EKVX NSCLC = tested on: EKVX NSCLC
CCRF-CEM leukemia = tested on: CCRF-CEM leukemia
A498 renal = tested on: A498 renal
HCT-116 colon = tested on: HCT-116 colon
SNB-75 CNS = tested on: SNB-75 CNS
HT29 colon = tested on: HT29 colon
ACHN renal = tested on: ACHN renal
KM12 colon = tested on: KM12 colon
RXF 393 renal = tested on: RXF 393 renal
DU-145 prostate = tested on: DU-145 prostate
OVCAR-4 ovarian = tested on: OVCAR-4 ovarian
MCF7 breast = tested on: MCF7 breast
LOX IMVI melanoma = tested on: LOX IMVI melanoma
T-47D breast = tested on: T-47D breast
MDA-MB-435 = tested on: MDA-MB-435
HCC-2998 colon = tested on: HCC-2998 colon
SF-295 CNS = tested on: SF-295 CNS
RPMI-8226 leukemia = tested on: RPMI-8226 leukemia
K-562 leukemia = tested on: K-562 leukemia
SN12C renal = tested on: SN12C renal
OVCAR-5 ovarian = tested on: OVCAR-5 ovarian
TK-10 renal = tested on: TK-10 renal
HL-60(TB) leukemia = tested on: HL-60(TB) leukemia
SK-OV-3 ovarian = tested on: SK-OV-3 ovarian
SF-539 CNS = tested on: SF-539 CNS

## COc1ccc(S(=O)(=O)NC2=NCCN2C(=S)SN2CCn3c2nsc3=S)cc1
SR leukemia
  GI50: 17 µM
  TGI: > 100 µM
COLO 205 colon
  GI50: 11 µM
  TGI: 27.4 µM
HOP-92 NSCLC
  GI50: 16.9 µM
  TGI: 35.4 µM
HOP-62 NSCLC
  GI50: 18.9 µM
  TGI: 39.2 µM
NCI-H23 lung
  GI50: 22.9 µM
  TGI: 55.7 µM
OVCAR-3 ovarian
  GI50: 15.5 µM
  TGI: 37.4 µM
BT-549 breast
  GI50: 10.4 µM
  TGI: 23.5 µM
SW-620 colon
  GI50: 14.1 µM
  TGI: 27.8 µM
U251 CNS
  GI50: 18.8 µM
  TGI: 40.5 µM
NCI-H460 lung
  GI50: 17.1 µM
  TGI: 44.2 µM
HS 578T breast
  GI50: 20.8 µM
  TGI: 54.2 µM
SNB-19 CNS
  GI50: 32.9 µM
  TGI: > 100 µM
PC-3 prostate
  GI50: 17.5 µM
  TGI: 40.1 µM
SK-MEL-2 melanoma
  GI50: 17.6 µM
  TGI: 51.3 µM
SF-268 CNS
  GI50: 18 µM
  TGI: 37.8 µM
M14 melanoma
  GI50: 14.9 µM
  TGI: 31 µM
SK-MEL-5 melanoma
  GI50: 17.8 µM
  TGI: 31.7 µM
SK-MEL-28 melanoma
  GI50: 21.1 µM
  TGI: 65.1 µM
MALME-3M melanoma
  GI50: 9.1 µM
  TGI: 24.9 µM
IGROV1 ovarian
  GI50: 30.6 µM
  TGI: > 100 µM
MDA-MB-231 breast
  GI50: 15 µM
  TGI: 36.9 µM
UACC-257 melanoma
  GI50: 16.8 µM
  TGI: 50.2 µM
HCT-15 colon
  GI50: 20.8 µM
  TGI: 58.9 µM
OVCAR-8 ovarian
  GI50: 27.3 µM
  TGI: > 100 µM
NCI/ADR-RES ovarian
  GI50: 32.5 µM
  TGI: > 100 µM
UO-31 renal
  GI50: 1.61 µM
  TGI: 3.41 µM
MOLT-4 leukemia
  GI50: 29.4 µM
  TGI: > 100 µM
CAKI-1 renal
  GI50: 17.9 µM
  TGI: 62.8 µM
UACC-62 melanoma
  GI50: 12.2 µM
  TGI: 27.4 µM
NCI-H226 lung
  GI50: 15.6 µM
  TGI: 33.2 µM
A549 NSCLC
  GI50: 23.4 µM
  TGI: 79.4 µM
786-0 renal
  GI50: 20.2 µM
  TGI: 35.4 µM
NCI-H522 lung
  GI50: 9.62 µM
  TGI: 35 µM
EKVX NSCLC
  GI50: 15.8 µM
  TGI: 30.6 µM
CCRF-CEM leukemia
  GI50: 7.95 µM
  TGI: 32.4 µM
A498 renal
  GI50: 19.9 µM
  TGI: 51.1 µM
HCT-116 colon
  GI50: 14.4 µM
  TGI: 27.9 µM
SNB-75 CNS
  GI50: 19.5 µM
  TGI: 42.5 µM
HT29 colon
  GI50: 32.4 µM
  TGI: > 100 µM
ACHN renal
  GI50: 12.9 µM
  TGI: 26 µM
KM12 colon
  GI50: 18.7 µM
  TGI: 37.7 µM
RXF 393 renal
  GI50: 4.11 µM
  TGI: 22.1 µM
DU-145 prostate
  GI50: 13.5 µM
  TGI: 31.9 µM
OVCAR-4 ovarian
  GI50: 18 µM
  TGI: 44.7 µM
MCF7 breast
  GI50: 12.4 µM
  TGI: 27.2 µM
LOX IMVI melanoma
  GI50: 15.5 µM
  TGI: 33.1 µM
T-47D breast
  GI50: 18.3 µM
  TGI: 49.1 µM
MDA-MB-435
  GI50: 14.8 µM
  TGI: 43.9 µM
HCC-2998 colon
  GI50: 21.4 µM
  TGI: 37.9 µM
SF-295 CNS
  GI50: 20.8 µM
  TGI: 53.6 µM
RPMI-8226 leukemia
  GI50: 14 µM
  TGI: 63.1 µM
K-562 leukemia
  GI50: 28.1 µM
  TGI: > 100 µM
SN12C renal
  GI50: 18.2 µM
  TGI: 40 µM
OVCAR-5 ovarian
  GI50: 17.3 µM
  TGI: 33.3 µM
TK-10 renal
  GI50: 15.9 µM
  TGI: 30.2 µM

## COc1cc2c(cc1OC)C(Sc1ccc(SC)cc1)c1c(nc(N)c(C#N)c1N)O2 (stereo not drawn)
SR leukemia
  GI50: 0.354 µM
  TGI: 2.35 µM
HL-60(TB) leukemia
  GI50: 1.51 µM
  TGI: 3.59 µM
COLO 205 colon
  GI50: 1.71 µM
  TGI: 3.41 µM
HOP-92 NSCLC
  GI50: 1.96 µM
  TGI: 3.86 µM
HOP-62 NSCLC
  GI50: 1.78 µM
  TGI: 3.26 µM
NCI-H23 lung
  GI50: 1.78 µM
  TGI: 3.55 µM
OVCAR-3 ovarian
  GI50: 1.62 µM
  TGI: 3.06 µM
BT-549 breast
  GI50: 1.38 µM
  TGI: 2.67 µM
SW-620 colon
  GI50: 1.92 µM
  TGI: 3.97 µM
U251 CNS
  GI50: 1.37 µM
  TGI: 2.66 µM
NCI-H460 lung
  GI50: 2.08 µM
  TGI: 4.49 µM
HS 578T breast
  GI50: 2.01 µM
  TGI: 4.52 µM
SNB-19 CNS
  GI50: 1.45 µM
  TGI: 2.8 µM
PC-3 prostate
  GI50: 1.63 µM
  TGI: 3.06 µM
SK-MEL-2 melanoma
  GI50: 1.48 µM
  TGI: 2.9 µM
SF-268 CNS
  GI50: 1.6 µM
  TGI: 3.1 µM
M14 melanoma
  GI50: 1.74 µM
  TGI: 3.24 µM
SK-MEL-5 melanoma
  GI50: 1.69 µM
  TGI: 3.07 µM
SK-MEL-28 melanoma
  GI50: 1.72 µM
  TGI: 3.22 µM
MALME-3M melanoma
  GI50: 1.85 µM
  TGI: 3.35 µM
IGROV1 ovarian
  GI50: 1.23 µM
  TGI: 3.24 µM
MDA-MB-231 breast
  GI50: 1.55 µM
  TGI: 2.92 µM
UACC-257 melanoma
  GI50: 2.07 µM
  TGI: 3.51 µM
SK-OV-3 ovarian
  GI50: 1.88 µM
  TGI: 3.31 µM
HCT-15 colon
  GI50: 1.44 µM
  TGI: 2.91 µM
OVCAR-8 ovarian
  GI50: 1.93 µM
  TGI: 3.47 µM
UO-31 renal
  GI50: 1.33 µM
  TGI: 2.6 µM
MOLT-4 leukemia
  GI50: 1.07 µM
  TGI: 4.08 µM
SF-539 CNS
  GI50: 1.55 µM
  TGI: 2.88 µM
UACC-62 melanoma
  GI50: 1.23 µM
  TGI: 2.51 µM
NCI-H226 lung
  GI50: 1.64 µM
  TGI: 3.04 µM
A549 NSCLC
  GI50: 2.05 µM
  TGI: 3.68 µM
786-0 renal
  GI50: 1.53 µM
  TGI: 2.85 µM
NCI-H522 lung
  GI50: 1.64 µM
  TGI: 3.03 µM
EKVX NSCLC
  GI50: 1.78 µM
  TGI: 3.32 µM
CCRF-CEM leukemia
  GI50: 0.571 µM
  TGI: 4.28 µM
A498 renal
  GI50: 1.61 µM
  TGI: 3.28 µM
HCT-116 colon
  GI50: 1.62 µM
  TGI: 3.01 µM
SNB-75 CNS
  GI50: 1.54 µM
  TGI: 3.16 µM
ACHN renal
  GI50: 1.69 µM
  TGI: 3.06 µM
KM12 colon
  GI50: 1.81 µM
  TGI: 3.46 µM
RXF 393 renal
  GI50: 1.25 µM
  TGI: 2.52 µM
DU-145 prostate
  GI50: 1.75 µM
  TGI: 3.17 µM
OVCAR-4 ovarian
  GI50: 1.64 µM
  TGI: 3.27 µM
MCF7 breast
  GI50: 1.1 µM
  TGI: 3.54 µM
LOX IMVI melanoma
  GI50: 1.28 µM
  TGI: 2.55 µM
T-47D breast
  GI50: 1.62 µM
  TGI: 4.26 µM
MDA-MB-435
  GI50: 1.75 µM
  TGI: 3.23 µM
HCC-2998 colon
  GI50: 1.8 µM
  TGI: 3.28 µM
SF-295 CNS
  GI50: 1.63 µM
  TGI: 3.01 µM
RPMI-8226 leukemia
  GI50: 2.54 µM
  TGI: 6.46 µM
K-562 leukemia
  GI50: 1.74 µM
  TGI: 5.59 µM
OVCAR-5 ovarian
  GI50: 1.87 µM
  TGI: 3.5 µM
TK-10 renal
  GI50: 1.6 µM
  TGI: 2.95 µM
